Test results taken from US5767139A, “Indoles which have steroid 5-α reductase inhibitory activity” (Pfizer, Inc., priority 1992, dated 1998).

Assays:
steroid 5α-reductase = assay: in vitro steroid 5α-reductase inhibitory activity using ventral prostate tissue from male rats; format: biochemical; conditions: rat ventral prostate particulate; [3H]-testosterone substrate, pH 6.5, 37° C., 30 minutes
From the text: The compounds of the formula (I) may be tested in vitro for steroid 5α-reductase inhibitory activity using prostate tissue from rats or humans as follows:
(i) The compounds of the formula (I) may be tested for their potency in inhibiting rat steroid 5α-reductase using ventral prostate tissue from male rats. In determining inhibitory potency against rat prostatic 5α-reductase the following procedure was employed:
Rat prostates were minced into small pieces. The tissue was homogenised in Buffer A (20 mM sodium phosphate, pH 6.5, buffer containing 0.32M sucrose and 1 mM dithiothreitol) with a Brinkman Polytron (Kinematica, Luzern, GmBH), and then homogenised with a motor driven (1000 rpm) Potter Elvehjem (teflon-to-glass) homogeniser. Prostate particles were obtained by centrifugation at 105,000 G for 60 minutes. The pellet was washed in 4 volumes of Buffer A and recentrifuged at 105,000 G. The resulting pellet was dispersed in Buffer A (1 ml per g of prostate tissue originally used) with a motor driven Potter Elvehjem homogeniser as described above. The particulate suspension was stored as 1 ml samples at -70° C.
The following components, dissolved in Buffer B (40 mM sodium phosphate buffer, pH 6.5), were added to test tubes: 500 μl of [^3 H]-testosterone (1 μCi, 1 nmol; Du Pont, NEN Research Products, Stevenage, U.K.), 100 μl of 0.5 mM NADPH, a compound of the formula (I) dissolved in 5 μl of dimethyl sulphoxide, and Buffer B to give a final reaction volume of 1 ml. The mixture was warmed to 37° C. and the reaction started by addition of an aliquot of prostate particulate suspension. The reaction mixture was incubated at 37° C. for 30 minutes and then quenched by addition with vigorous mixing of 2 ml of ethyl acetate containing 20 μg each of testosterone and 5α-dihydrotestosterone as carriers. The aqueous and organic layers were separated by centrifugation at 2000 G for 10 minutes. The organic layer was transferred to a second test tube and evaporated to dryness under nitrogen. The residue was dissolved in 50-80 μl of absolute ethanol and spotted onto a silica gel 60 F254 TLC plate (E. Merck, Darmstadt, Germany) and developed in chloroform:acetone (185:15).
The radiochemical content in the bands of the substrate (testosterone) and the product (5α-dihydrotestosterone) were determined with a RITA Radio TLC Analyser (Raytest Instruments Ltd., Sheffield, U.K.). The percent of recovered radiolabel converted to 5α-dihydrotestosterone was calculated and used to determine enzyme activity. All incubations were conducted so that no more than 15% of substrate (testosterone) was converted to product.
The experimentally obtained data for a range of inhibitor concentrations was computer fitted to a sigmoidal dose-response curve and concentrations of compound giving 50% inhibition of 5α-reductase activity (IC50 's) were calculated using a SIGFIT program (De Lean, A., Munson, P. J. and Rodbard, D., American Journal of Physiology, 235, E97 (1978)).
A selection of compounds of the formula (I) was tested in vitro for steroid 5α-reductase inhibitory activity using ventral prostate tissue from male rats according to the procedure outlined on pages 35 to 37 of the description.

mice = assay: Toxicity Study, oral administration to mice; format: in vivo; conditions: up to a dose of 1000 mg/kg, throughout the duration of the study

| SMILES | IC50 (steroid 5α-reductase) | appearance and behaviour (mice) |
| --- | --- | --- |
| CC(C)Cc1ccc(C2(C)Oc3ccc(C(=O)c4cn(CCCC(=O)O)c5ccccc45)cc3O2)cc1 (racemic) [Example 2, 4-[3-([2-methyl-2-(4-[2-methylpropyl]phenyl)-1,3-benzodioxolan-5-yl]carbonyl)indol-1-yl]butanoic acid] | 11.4 nM |  |
| CC(C)Cc1ccc(C2(C)Oc3ccc(C(=O)c4cn(CCCC(=O)O)c5ccccc45)cc3O2)cc1 (single isomer, unassigned; (-)) [Example 4, (-)-4-[3-([2-methyl-2-(4-[2-methylpropyl]phenyl)-1,3-benzodioxolan-5-yl]carbonyl)indol-1-yl]butanoic acid] | 10.3 nM | normal appearance and behaviour |
| O=C(O)CCCn1cc(C(=O)c2ccc3c(c2)OC(c2ccccc2)(c2ccccc2)O3)c2ccccc21 [Example 1] | 2.7 nM |  |
| CCCc1ccc(C2(c3ccc(CCC)cc3)Oc3ccc(C(=O)c4cn(CCCC(=O)O)c5ccccc45)cc3O2)cc1 [Example 5] | 33.7 nM |  |
| O=C(O)CCCn1cc(C(=O)c2ccc3c(c2)OC(c2ccc(Cl)cc2)(c2ccc(Cl)cc2)O3)c2ccccc21 [Example 6] | 15.6 nM |  |
| O=C(O)CCCn1cc(C(=O)c2ccc3c(c2)OC(c2ccc(F)cc2)(c2ccc(F)cc2)O3)c2ccccc21 [Example 7] | 10.7 nM |  |
| CCCCC1(c2ccc(CCC)cc2)Oc2ccc(C(=O)c3cn(CCCC(=O)O)c4ccccc34)cc2O1 (centres unmarked) [Example 8] | 2.9 nM |  |
| CC1(c2ccc(OCc3ccccc3)cc2)Oc2ccc(C(=O)c3cn(CCCC(=O)O)c4ccccc34)cc2O1 (centres unmarked) [Example 9] | 67.5 nM |  |
| O=C(O)CCCn1cc(C(=O)c2ccc3c(c2)OC2(CCCc4ccccc42)O3)c2ccccc21 (centres unmarked) [Example 10] | 7.91 nM |  |
| CC1(c2ccccc2)Oc2ccc(C(=O)c3cn(CCCC(=O)O)c4ccccc34)cc2O1 (centres unmarked) [Example 14] | 21.1 nM |  |
| O=C(O)CCCn1cc(C(=O)c2ccc3c(c2)OC(c2cccs2)(c2cccs2)O3)c2ccccc21 [Example 15] | 5.29 nM |  |
| CC1(C2CCCCC2)Oc2ccc(C(=O)c3cn(CCCC(=O)O)c4ccccc34)cc2O1 (centres unmarked) [Example 19] | 11 nM |  |
| CCCc1ccc(C2(CC)Oc3ccc(C(=O)c4cn(CCCC(=O)O)c5ccccc45)cc3O2)cc1 (centres unmarked) [Example 27] | 1.41 nM |  |
| COc1ccc(C2(C)Oc3ccc(C(=O)c4cn(CCCC(=O)O)c5ccccc45)cc3O2)cc1 (centres unmarked) [Example 29] | 3.67 nM |  |
| O=C(O)CCCn1cc(C(=O)c2ccc3c(c2)OC2(CCC(c4ccccc4)C2)O3)c2ccccc21 (centres unmarked) [Example 31] | 5.56 nM |  |
| O=C(O)CCCCn1cc(C(=O)c2ccc3c(c2)OC(c2ccccc2)(c2ccccc2)O3)c2ccccc21 [Example 34] | 264 nM |  |
| O=C(O)CCCn1cc(C(=O)Cc2ccc3c(c2)OC(c2ccccc2)(c2ccccc2)O3)c2ccccc21 [Example 35] | 42.6 nM |  |
| CC(C)Cc1ccc(C2(C)Oc3ccc(CC(=O)c4cn(CCCC(=O)O)c5ccccc45)cc3O2)cc1 (centres unmarked) [Example 36] | 251 nM |  |
| O=C(O)CCCn1cc(C(=O)Cc2ccc3c(c2)OC(c2ccc(Cl)cc2)(c2ccc(Cl)cc2)O3)c2ccccc21 [Example 37] | 100 nM |  |
| Cc1c(C(=O)c2ccc3c(c2)OC(c2ccccc2)(c2ccccc2)O3)c2ccccc2n1CCCC(=O)O [Example 39] | 270 nM |  |
| Cc1c(C(=O)c2ccc3c(c2)OC(C)(c2ccc(CC(C)C)cc2)O3)c2ccccc2n1CCCC(=O)O (centres unmarked) [Example 40] | 260 nM |  |
| CCCc1ccc(C2(c3ccc(OC)cc3)Oc3ccc(C(=O)c4cn(CCCC(=O)O)c5ccccc45)cc3O2)cc1 (centres unmarked) [Example 45] | 7.84 nM |  |
